These results are taken from patent US5171750A (priority 1991, dated 1992).

The subject of test [1] is neuromuscular AChR. The conditions noted are these: cited from earlier work.
The target of test [2] is human erythrocyte AChE (Homo sapiens, UniProt P22303). In words: biochemical. Format: biochemical.
Test [3] concerns the target plasma BChE (Homo sapiens, UniProt P06276). The test can be described thus: biochemical.

What is called IC50 is the concentration that gives 50% inhibition.

Where two headings read alike, the source gives them in different places.

plasma BChE, sequence (P06276 29-602): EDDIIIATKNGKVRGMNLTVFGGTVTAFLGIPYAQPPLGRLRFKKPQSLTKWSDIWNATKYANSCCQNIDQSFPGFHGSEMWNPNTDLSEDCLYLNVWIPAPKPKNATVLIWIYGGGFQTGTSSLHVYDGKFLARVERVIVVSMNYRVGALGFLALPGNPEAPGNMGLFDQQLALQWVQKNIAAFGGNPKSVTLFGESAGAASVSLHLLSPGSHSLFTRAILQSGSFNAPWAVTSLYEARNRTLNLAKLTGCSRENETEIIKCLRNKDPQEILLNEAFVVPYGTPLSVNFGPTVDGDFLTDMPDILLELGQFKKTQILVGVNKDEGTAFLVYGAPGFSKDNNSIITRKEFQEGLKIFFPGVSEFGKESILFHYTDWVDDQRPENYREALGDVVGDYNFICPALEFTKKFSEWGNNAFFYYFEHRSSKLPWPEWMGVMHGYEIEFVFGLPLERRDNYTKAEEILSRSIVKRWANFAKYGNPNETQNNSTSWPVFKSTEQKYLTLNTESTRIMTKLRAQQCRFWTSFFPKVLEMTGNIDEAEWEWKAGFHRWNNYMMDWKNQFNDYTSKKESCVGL
human erythrocyte AChE, sequence (P22303-2 with tags, fused parts or gaps limits assumed): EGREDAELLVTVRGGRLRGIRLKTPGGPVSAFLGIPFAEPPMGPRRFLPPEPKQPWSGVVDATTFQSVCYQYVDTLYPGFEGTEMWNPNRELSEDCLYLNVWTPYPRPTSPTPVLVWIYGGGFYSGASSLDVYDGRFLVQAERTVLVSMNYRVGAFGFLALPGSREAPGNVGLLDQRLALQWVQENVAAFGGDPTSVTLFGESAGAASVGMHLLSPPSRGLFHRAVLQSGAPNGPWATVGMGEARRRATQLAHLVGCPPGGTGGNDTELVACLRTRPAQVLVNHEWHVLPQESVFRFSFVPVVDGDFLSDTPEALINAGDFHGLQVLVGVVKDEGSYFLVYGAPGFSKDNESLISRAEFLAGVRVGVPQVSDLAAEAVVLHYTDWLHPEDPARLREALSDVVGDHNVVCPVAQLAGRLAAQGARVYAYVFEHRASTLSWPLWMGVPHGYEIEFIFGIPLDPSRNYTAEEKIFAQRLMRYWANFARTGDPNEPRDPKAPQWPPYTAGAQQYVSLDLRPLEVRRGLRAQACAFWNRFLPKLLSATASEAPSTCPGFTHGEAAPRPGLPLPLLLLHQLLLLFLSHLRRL

On to `CNC(=O)Oc1ccc2c(c1)[C@]1(C)CCN(C)[C@@H]1N2C` [(1) (-)-physostigmne, (-)-physostigmine], for which the “properties at the neuromuscular AChR, in words” value in test [1] is “blocking properties as well as agonist properties at the neuromuscular AChR”.
In the case of `CNC(=O)Oc1ccc2c(c1)[C@]1(C)CCO[C@@H]1N2C` [(3) (-)-physovenine, (-)-physovenine, reference compound], the “enzyme selectivity / preference (AChE vs BChE), in words” value (from here on “enzyme selectivity / preference”) in test [2] is “inhibited AChE and BChE in vitro similarly at similar concentrations”. In addition, the IC50 in test [2] (pH 8, read-out: AChE IC50) came out at 0.0271 ± 0.0008 µM; in test [3] it was 0.0035 ± 0.0014 µM.
For `Cc1ccccc1NC(=O)Oc1ccc2c(c1)[C@]1(C)CCN(C)[C@@H]1N2C` [Ex. 7, (-)-2'-Methylphenylcarbamoyleseroline], the IC50 in test [2] (pH 8, read-out: AChE IC50) worked out at 0.0103 ± 0.0016 µM.
For `Cc1ccc(NC(=O)Oc2ccc3c(c2)[C@]2(C)CCN(C)[C@@H]2N3C)c(C)c1` [Ex. 8, (-)-2'-4'-dimethylphenylcarbamoyleseroline], the IC50 in test [2] was 0.0136 ± 0.001 µM; in test [3] (pH 8, read-out: BChE IC50), 1.82 ± 0.558 µM.
On to `Cc1ccc(NC(=O)Oc2ccc3c(c2)[C@]2(C)CCN(C)[C@@H]2N3C)cc1` [Ex. 10, (-)-4'-methylphenylarbamoyleseroline], for which the IC50 in test [2] (pH 8, read-out: AChE IC50) stood at 0.139 ± 0.0037 µM; in test [3] (pH 8, read-out: BChE IC50), 0.251 ± 0.0086 µM.
In the case of `CCc1cccc(CC)c1NC(=O)Oc1ccc2c(c1)[C@]1(C)CCN(C)[C@@H]1N2C` [Ex. 11, (-)-2',6-diethylphenylcarbamoylescroline], the IC50 in test [2] (pH 8, read-out: AChE IC50) turned out to be 1.49 ± 0.0498 µM; in test [3], 1.07 ± 0.048 µM.
In the case of `CCc1ccccc1NC(=O)Oc1ccc2c(c1)[C@]1(C)CCN(C)[C@@H]1N2C` [Ex. 12, (-)-2'-ethylphenylcarbamoyleseroline], the half-inhibitory concentration (IC50) is 0.0097 ± 0.0001 µM in test [2] and 2.92 ± 0.537 µM in test [3] (pH 8, read-out: BChE IC50).
On to `CN1CC[C@@]2(C)c3cc(OC(=O)Nc4ccccc4)ccc3N(C)[C@@H]12` [Ex. 14, (-)-phenylcarbamoyleserolne], for which the “lower concentration for inhibition of AChE than of BChE” value in test [2] (human) is recorded as 50 times.
As for `Cc1cc(C)c(NC(=O)Oc2ccc3c(c2)[C@]2(C)CCN(C)[C@@H]2N3C)c(C)c1` [Ex. 15, (-)-(-)-2',4',6'-trimethylphenylcarbamoyleseroline], the IC50 worked out at 1.29 ± 0.0738 µM in test [2] (pH 8, read-out: AChE IC50) and 3.29 ± 0.885 µM in test [3] (pH 8, read-out: BChE IC50).
In the case of `CN1CC[C@@]2(C)c3cc(OC(=O)Nc4ccccc4Cl)ccc3N(C)[C@@H]12` [Ex. 17, (-)-2'-chlorophenylcarbamoyleseroline], the figures for the IC50 in test [2] and in test [3] were 0.496 ± 0.0282 µM and 1.61 ± 0.0864 µM, respectively.
For `CN1CC[C@@]2(C)c3cc(OC(=O)Nc4c(Cl)cccc4Cl)ccc3N(C)[C@@H]12` [Ex. 18, (-)-2',6'-dichlorophenylcarbamoylseroline] the same measures were 0.0666 ± 0.0018 µM and 0.425 ± 0.0864 µM.
Consider `CN1c2ccc(OC(=O)Nc3ccccc3)cc2[C@]2(C)CCO[C@H]12` [Ex. 22, phenylcarbamate of (-)-physovenol], for which the “enzyme selectivity / preference” value in test [2] was “high preference for Ache”. Further, the IC50 turned out to be 0.0112 ± 0.0021 µM in test [2] (AChE IC50), 0.011 µM in test [2] (IC50 for AChE) and 0.7 ± 0.037 µM in test [3].
As to `Cc1ccccc1NC(=O)Oc1ccc2c(c1)[C@]1(C)CCO[C@@H]1N2C` [Ex. 23, (-)-5-O-(2'-Methylphenylcarbamoyl)physovenol], the IC50 is 0.0129 ± 0.0008 µM in test [2] (pH 8, read-out: AChE IC50) and 1.56 ± 0.12 µM in test [3] (pH 8, read-out: BChE IC50).
Regarding `CC(C)c1ccc(NC(=O)Oc2ccc3c(c2)[C@]2(C)CCO[C@@H]2N3C)cc1` [compound 24], the “enzyme selectivity / preference” value in test [2] is recorded as “reverse enzyme specificity”. Moreover, the half-maximal inhibitory concentration (IC50) in test [2] (read-out: IC50 for AChE) was found to be 3.8 µM; in test [3] (read-out: IC50 for BChE (printed once as RChE)), 0.0165 µM.
